Reference: ChEMBL document CHEMBL1201862, “PubChem BioAssay data set” (2004)
Active and inactive are the calls of the source.

Tests used:
[1] = target: T1, RNA-binding protein pos-1 (Caenorhabditis elegans, UniProt G5EF15); assay: disruptors of C. elegans POS-1 RNA interaction – biochemical, fluorescence polarization, dose response (AID 1964);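 further: purified POS-1 fused to maltose binding protein made in E. coli; potency of compounds blocking POS-1 binding to fluorescent RNA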
T1 sequence (G5EF15 whole entry): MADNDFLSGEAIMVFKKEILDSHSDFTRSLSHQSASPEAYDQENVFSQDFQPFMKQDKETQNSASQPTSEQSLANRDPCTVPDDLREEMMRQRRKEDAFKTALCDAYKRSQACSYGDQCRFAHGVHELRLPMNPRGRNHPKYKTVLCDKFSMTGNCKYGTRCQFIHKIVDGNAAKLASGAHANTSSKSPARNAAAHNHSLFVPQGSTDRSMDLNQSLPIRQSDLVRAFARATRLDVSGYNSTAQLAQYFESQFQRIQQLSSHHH

[2] = target: T2, Heat shock protein HSP 90-alpha (Homo sapiens, UniProt P07900); assay: Luminescence-based dose response biochemical high throughput screening assay for inhibitors of the Heat Shock Protein 90 (HSP90). [Related pubchem assays: 1831 (Summary AID.), 1846 (Confirmation screen.), 1789 (Primary screen.)]
Beta-galactosidase = Beta-galactosidase (Escherichia coli, UniProt Q8VNN2); assay: detection-enzyme interference by beta-gal modulators – biochemical, E. coli enzyme, set 3, artefact control for CCR6 antagonist project, dose response (AID 504712); assay type: functional
[3] = target: T3, Histone-lysine N-methyltransferase NSD2 (Homo sapiens, UniProt O96028); assay type: biochemical
T3 sequence (O96028 whole entry): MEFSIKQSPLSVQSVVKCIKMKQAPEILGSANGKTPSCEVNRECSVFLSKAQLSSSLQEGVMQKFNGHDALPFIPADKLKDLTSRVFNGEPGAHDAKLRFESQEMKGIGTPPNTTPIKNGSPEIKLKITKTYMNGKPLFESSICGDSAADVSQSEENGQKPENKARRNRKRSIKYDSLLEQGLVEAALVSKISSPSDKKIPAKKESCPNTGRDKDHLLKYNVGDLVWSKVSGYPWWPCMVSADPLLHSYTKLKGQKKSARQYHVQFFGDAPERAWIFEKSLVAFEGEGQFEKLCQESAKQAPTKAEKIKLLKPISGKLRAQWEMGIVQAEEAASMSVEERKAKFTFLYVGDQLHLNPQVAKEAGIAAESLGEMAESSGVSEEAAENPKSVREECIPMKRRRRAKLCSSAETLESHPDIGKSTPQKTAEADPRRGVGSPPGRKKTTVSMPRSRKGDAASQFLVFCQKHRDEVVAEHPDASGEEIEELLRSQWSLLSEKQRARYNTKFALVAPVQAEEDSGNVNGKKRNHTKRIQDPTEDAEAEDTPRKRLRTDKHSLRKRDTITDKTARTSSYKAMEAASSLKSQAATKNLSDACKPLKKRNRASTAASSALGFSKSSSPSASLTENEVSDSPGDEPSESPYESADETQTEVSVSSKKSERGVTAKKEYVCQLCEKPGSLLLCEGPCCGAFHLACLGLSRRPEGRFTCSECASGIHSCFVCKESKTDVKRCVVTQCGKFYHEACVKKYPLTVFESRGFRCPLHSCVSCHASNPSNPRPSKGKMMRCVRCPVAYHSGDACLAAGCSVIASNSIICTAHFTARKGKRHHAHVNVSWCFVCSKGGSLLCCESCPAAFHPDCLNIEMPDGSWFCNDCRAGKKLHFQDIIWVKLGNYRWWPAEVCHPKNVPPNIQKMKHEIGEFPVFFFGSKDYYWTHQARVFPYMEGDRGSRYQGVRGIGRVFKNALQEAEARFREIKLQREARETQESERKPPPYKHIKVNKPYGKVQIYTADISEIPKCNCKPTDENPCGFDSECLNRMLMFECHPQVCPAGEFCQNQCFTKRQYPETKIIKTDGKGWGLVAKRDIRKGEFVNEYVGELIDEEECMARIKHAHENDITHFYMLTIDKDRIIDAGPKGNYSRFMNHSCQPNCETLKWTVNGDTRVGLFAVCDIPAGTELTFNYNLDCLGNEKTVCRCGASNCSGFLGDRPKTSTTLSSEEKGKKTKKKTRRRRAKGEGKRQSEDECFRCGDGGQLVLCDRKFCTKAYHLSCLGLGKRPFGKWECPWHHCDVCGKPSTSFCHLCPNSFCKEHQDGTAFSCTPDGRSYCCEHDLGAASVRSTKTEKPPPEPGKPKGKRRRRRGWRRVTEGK

[4] = viability of HCT116 lacking mutant beta-catenin – cell-based, human colon tumor, dose response (AID 1045); assay type: functional;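 further: HCT116 colon tumor cells with beta catenin knocked out; cells exposed to compound for 60 hours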
[5] = HEK-293T viability loss after treatment – luminescence, T-cell screen hits, cytotoxicity control for TCR NF-kB inhibitor project, dose response (AID 489026); assay type: functional, cell-based;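 further: cells exposed to compound about 14 hours before the viability readout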
[6] = target: T2, Heat shock protein HSP 90-alpha; assay type: functional, organism-based
[7] = reduction of Shn3 3'UTR-driven luciferase in osteoblasts – cell-based, Clone20 osteoblasts, firefly luciferase, cherry-picked, dose response (AID 624132); assay type: functional;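 further: firefly luciferase luminescence from reporter carrying the Shn3 3'UTR in osteoblasts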
[8] = non-specific 3'UTR reporter inhibition in Clone20-Shn3RL – cell-based, Renilla luciferase, cherry-picked, counter-screen for Shn3 inhibitor project, dose response (AID 624133); assay type: functional
[9] = target: Photoreceptor-specific nuclear receptor (Homo sapiens, UniProt Q9Y5X4); assay type: functional, cell-based;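 further: CHO-S cells with Gal4-NCOR and VP16-NR2E3 two-hybrid luciferase reporter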
[10] = target: T4, Rac GTPase-activating protein 1 (Homo sapiens, UniProt Q9H0H5); assay: blockers of MgcRacGAP-driven Rac1 GTP hydrolysis – biochemical, ADP Hunter fluorescence, primary and confirmatory, confirmation (AID 624330); assay type: functional
T4 sequence (Q9H0H5 whole entry): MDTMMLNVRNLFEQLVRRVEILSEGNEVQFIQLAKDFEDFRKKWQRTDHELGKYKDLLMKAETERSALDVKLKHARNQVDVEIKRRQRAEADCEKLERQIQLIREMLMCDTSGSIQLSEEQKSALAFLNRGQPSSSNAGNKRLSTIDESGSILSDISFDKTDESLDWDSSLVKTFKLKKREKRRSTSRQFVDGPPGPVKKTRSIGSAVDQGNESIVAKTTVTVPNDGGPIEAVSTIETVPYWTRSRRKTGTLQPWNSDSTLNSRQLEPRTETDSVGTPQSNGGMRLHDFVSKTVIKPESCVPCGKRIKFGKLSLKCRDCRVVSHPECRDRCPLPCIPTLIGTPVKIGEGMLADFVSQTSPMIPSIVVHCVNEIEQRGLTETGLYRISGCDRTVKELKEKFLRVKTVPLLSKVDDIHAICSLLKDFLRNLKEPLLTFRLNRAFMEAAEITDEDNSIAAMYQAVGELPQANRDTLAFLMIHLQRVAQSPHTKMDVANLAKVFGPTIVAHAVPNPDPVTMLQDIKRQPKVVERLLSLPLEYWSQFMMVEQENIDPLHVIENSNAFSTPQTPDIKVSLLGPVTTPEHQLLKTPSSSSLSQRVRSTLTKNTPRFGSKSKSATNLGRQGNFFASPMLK

Genome polyprotein = Genome polyprotein (dengue virus type 2, UniProt P29990); assay: flavivirus cap methylation enzyme inhibition – biochemical, confirmation dose response, primary screen (AID 588689); assay type: functional
Sequence of Genome polyprotein (P29990 2492-3391 limits assumed): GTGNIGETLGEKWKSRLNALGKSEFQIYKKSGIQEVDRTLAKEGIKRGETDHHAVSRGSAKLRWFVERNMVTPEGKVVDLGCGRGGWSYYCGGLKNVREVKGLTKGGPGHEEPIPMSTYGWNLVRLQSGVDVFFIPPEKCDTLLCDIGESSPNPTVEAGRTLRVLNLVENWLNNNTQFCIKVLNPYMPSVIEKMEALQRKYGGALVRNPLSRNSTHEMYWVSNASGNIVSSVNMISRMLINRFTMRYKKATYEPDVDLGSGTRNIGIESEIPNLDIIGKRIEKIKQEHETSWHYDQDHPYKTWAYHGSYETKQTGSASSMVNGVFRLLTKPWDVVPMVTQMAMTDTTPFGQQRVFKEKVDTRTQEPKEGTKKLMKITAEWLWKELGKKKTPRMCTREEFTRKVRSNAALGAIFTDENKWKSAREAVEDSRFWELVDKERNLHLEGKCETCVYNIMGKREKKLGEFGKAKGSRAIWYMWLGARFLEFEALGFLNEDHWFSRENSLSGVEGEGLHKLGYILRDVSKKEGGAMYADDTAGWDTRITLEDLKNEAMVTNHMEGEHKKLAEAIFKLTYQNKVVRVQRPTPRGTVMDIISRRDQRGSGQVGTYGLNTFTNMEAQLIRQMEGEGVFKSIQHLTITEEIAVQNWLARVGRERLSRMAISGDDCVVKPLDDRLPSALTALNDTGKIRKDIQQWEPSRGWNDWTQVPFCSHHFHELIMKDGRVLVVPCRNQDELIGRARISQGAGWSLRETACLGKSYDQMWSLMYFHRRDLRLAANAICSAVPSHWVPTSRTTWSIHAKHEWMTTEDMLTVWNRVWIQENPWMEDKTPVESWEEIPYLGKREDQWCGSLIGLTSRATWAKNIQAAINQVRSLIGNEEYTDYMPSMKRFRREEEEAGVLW

Sequence of Photoreceptor-specific nuclear receptor (Q9Y5X4 whole entry, the tested form may be a part): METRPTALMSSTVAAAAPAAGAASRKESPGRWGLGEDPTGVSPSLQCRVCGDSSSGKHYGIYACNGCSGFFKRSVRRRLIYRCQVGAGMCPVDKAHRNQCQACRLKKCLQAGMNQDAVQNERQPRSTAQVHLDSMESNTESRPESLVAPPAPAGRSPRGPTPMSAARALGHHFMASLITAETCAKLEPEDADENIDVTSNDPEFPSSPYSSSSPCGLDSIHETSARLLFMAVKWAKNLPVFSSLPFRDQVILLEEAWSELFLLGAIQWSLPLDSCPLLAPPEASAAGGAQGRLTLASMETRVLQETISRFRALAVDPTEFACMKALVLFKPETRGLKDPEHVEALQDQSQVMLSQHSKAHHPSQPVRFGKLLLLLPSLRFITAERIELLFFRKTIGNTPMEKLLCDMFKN
Sequence of Beta-galactosidase (Q8VNN2 whole entry): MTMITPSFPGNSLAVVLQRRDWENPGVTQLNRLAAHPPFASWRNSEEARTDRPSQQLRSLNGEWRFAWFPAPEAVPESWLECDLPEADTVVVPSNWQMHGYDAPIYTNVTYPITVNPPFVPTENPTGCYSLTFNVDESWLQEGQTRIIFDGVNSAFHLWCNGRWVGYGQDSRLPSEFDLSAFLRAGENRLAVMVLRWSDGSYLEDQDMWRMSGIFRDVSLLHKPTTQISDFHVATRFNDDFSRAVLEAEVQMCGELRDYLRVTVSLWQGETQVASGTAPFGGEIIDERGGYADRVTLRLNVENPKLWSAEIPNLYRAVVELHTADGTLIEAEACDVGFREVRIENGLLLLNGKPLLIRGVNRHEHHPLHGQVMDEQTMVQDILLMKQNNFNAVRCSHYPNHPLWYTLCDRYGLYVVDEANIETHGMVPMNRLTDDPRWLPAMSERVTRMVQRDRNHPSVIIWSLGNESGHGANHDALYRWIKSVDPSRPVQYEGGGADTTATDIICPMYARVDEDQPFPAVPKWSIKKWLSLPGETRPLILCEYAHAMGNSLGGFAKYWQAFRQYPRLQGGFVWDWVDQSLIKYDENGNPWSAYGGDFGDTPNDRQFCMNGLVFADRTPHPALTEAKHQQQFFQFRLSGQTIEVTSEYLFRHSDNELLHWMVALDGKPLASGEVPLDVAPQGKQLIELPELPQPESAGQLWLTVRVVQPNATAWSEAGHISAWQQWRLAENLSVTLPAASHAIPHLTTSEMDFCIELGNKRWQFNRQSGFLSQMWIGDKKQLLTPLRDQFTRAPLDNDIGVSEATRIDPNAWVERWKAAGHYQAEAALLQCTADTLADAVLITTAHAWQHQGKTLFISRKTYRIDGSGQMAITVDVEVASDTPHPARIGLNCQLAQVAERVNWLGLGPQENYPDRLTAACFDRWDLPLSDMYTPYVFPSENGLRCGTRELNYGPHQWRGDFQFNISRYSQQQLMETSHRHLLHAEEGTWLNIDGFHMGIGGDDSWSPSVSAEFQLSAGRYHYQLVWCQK

Cc1ccc(S(=O)(=O)/N=C2\C=C(Nc3cccc(C(=O)O)c3)C(=O)c3ccccc32)c(C)c1
EC50 [1]: 68.6 µM (active) | IC50 [2]: 0.919 µM (active) | IC50 (Beta-galactosidase): 43.5 µM (inactive) | AC50 [3]: 0.255 µM (active)

COc1ccc(NC(=O)/C(Cl)=C(/Cl)[S+]([O-])Cc2ccccc2)cn1 (configuration not stated)
EC50 [4]: 0.185 µM (active) | IC50 [5]: 33 µM (inactive) | AC50 [6]: 2 µM (active) | AC50 [7]: < 0.26 µM (active) | AC50 [8]: < 0.26 µM (active) | IC50 [9]: 0.92 µM (active) | IC50 [10]: 36.5 µM (active)

Nc1ccc(N2CCCCC2)c2nonc12
IC50 (Genome polyprotein): 40.6 µM (active)
